This note sets out measurements from article PMC10563230, “Unveiling poly(rC)-binding protein 2 as the target protein for curcusone C against prostate cancer: mechanism validation through click chemistry-activity based proteomics profiling approach” (BMC Cancer, 2023).

Some results are limits rather than exact numbers.

One data set deals with PCBP2 protein (Homo sapiens, UniProt Q15366). The data set can be described thus: SPR binding to immobilized PCBP2 (CM5 chip). The conditions noted are these: analyte 31.25–500 µM. How it is done: The PCBP2 protein was first immobilized on the CM5 microarray using […], and then the analyte was run using a multi-cycle method. Briefly, small molecules were diluted to different concentrations with Running Buffer, and injected into channel Fc1-Fc2 at a flow rate of 30 µl/min. The association period was 60 s, and then dissociated for 90 s. The association and dissociation processed in the Running Buffer.
PCBP2 protein, sequence (Q15366 whole entry): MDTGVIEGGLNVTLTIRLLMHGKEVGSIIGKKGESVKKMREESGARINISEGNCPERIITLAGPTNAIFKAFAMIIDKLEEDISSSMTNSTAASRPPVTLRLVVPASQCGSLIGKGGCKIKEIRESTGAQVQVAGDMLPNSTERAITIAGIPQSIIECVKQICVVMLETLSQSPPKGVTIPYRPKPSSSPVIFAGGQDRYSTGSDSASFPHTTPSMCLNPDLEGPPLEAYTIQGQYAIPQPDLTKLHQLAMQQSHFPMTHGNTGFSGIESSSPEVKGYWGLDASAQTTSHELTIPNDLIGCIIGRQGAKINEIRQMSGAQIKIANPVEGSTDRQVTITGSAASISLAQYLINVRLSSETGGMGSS
Background: Surface plasmon resonance follows binding to a sensor surface in real time, without labels.

The subject of data set [1] is human proximal tubular HK-2 cells. The data set can be described thus: CCK-8 cytotoxic activity assay, HK-2 normal cells. It counts as cell-based. The note with it: HK-2, 48 h, CCK-8, 48 h. How it is done: (§1) Human prostate carcinoma PC-3 cells and human proximal tubular HK-2 cells purchased from Chinese National Collection of Authenticated Cell Cultures were cultured in RPMI 1640 medium containing FBS (10%, Gibco, CA, USA) and Penicillin-Streptomycin (1%, Gibco, CA, USA). The cells were cultured at a concentration of 5% CO2 and a temperature of 37 ℃, and the medium was changed every two days.
(§2) CCK-8 assay was used to evaluate the proliferation and cytotoxicity of Curcusone C and its derivatives. Cells of 100 µL with a concentration of 5000 cells/mL to 8000 cells/mL were inoculated in 96-well plates for culturing 24 h, and the blank well was added with equal volume medium. After cell adhesion, 10 µL Curcusone C solution or its derivatives were added to each well of the experimental groups except the blank well to the final concentration of drug was 1 mM, […] respectively, and 10 µL DMSO (drug solvent) was added to the control well. The liquid was discarded 48 h later, and 100 µL medium and 10 µL CCK-8 reagent (Beyotime, Shanghai, China) were added to each well. After incubation for 0.5 to 1 h, the absorbance valued at 450 nm was measured and the cell inhibition rate or survival rate was calculated. Cell inhibition rate= […].

The subject of data set [2] is Bax, Bcl-2, caspase-3 and PARP proteins in PC-3 cells. The data set is described as follows: Western blot of mitochondrial apoptosis pathway proteins in PC-3 cells. The format is cell-based, human. The note with it: increasing concentration. How it is done: (§3) The culture medium containing PC-3 cells was discarded, lysis buffer was added, and the cells were collected with a scraper. The sample is then transferred to a centrifuge tube and the cells are fully lysed. Centrifuge the tube at 12,000 g and 4 ℃ for 10 min. After taking the supernatant, mix with the protein: protein loading buffer (v/v) = 5:1 ratio, and boil at 95 ℃ for 10 min to fully denaturate the protein. BCA protein concentration assay kit (Beyotime, China) was used to quantify the protein of experimental samples. Equal amounts of protein (30 µg) were loaded onto 7.5-12.5% SDS-PAGE gel. After adding the sample, the target protein was separated at 140 V constant pressure and was transferred under the condition of 250 mA constant current and the highest voltage. The transferred PVDF membrane (Thermo Fisher Scientific, MA, USA) was sealed in 5% skim milk (BIOFRox, Germany) for 2 h. The membrane was incubated in the antibody diluent of the corresponding protein at 4 ℃ overnight in a shaker and washed with TBST (Gibco, USA) for three times. Then it was placed in secondary antibody diluent for incubating 1.5 h at 4 ℃ in a shaker and washed again for three times. Finally, appropriate amount of ECL luminescent solution was taken to infiltrate PVDF membrane for development, and the strip was exposed and recorded.
(A western blot detects proteins with antibodies after separation by electrophoresis.)

Data set [3] relates to PCBP2. The data set can be described thus: DARTS (pronase digestion of PCBP2 in PC-3 protein extract). The format is binding, human. The conditions noted are these: 100 µM. On the procedure:
PC-3 cells protein was extracted, and the protein concentration was adjusted to 5 mg/mL and was packed into 99 µL/tube. Then, 10 mM and 5 mM Curcusone C solution of 1 µL was added to protein mixture of 99 µL and gently shaken at room temperature for 1 h. After the compounds were completely incubated, the samples were divided into one part every 20 µL, and 2 µL pronase solution with a certain concentration was added. The control group was added with 2 µL TNC buffer and incubated at room temperature for 30 min to ensure the same digestion time in each group. Digestion was terminated with 20X protease inhibitor complex and incubated on ice for 10 min. Finally, 6 µL 5X protein loading buffer was added to each sample and boiled at 100 ℃ for 10 min to fully denaturate the protein. The samples were centrifuged at 1100 g and 4 ℃ for 1 min and were performed western blot.

Data set [4] relates to PCBP2. The data set can be described thus: Western blot of PCBP2 in PC-3 cells. The format is cell-based, human. The conditions noted are these: different concentrations. On the procedure: as §3
Data set [5] relates to PCBP2, FHL3, TGF-β1, phosphorylated Smad2 and phosphorylated Smad7. The data set can be described thus: Immunohistochemistry of tumor tissues of nude mice. The format is in vivo, Balb/C nude mice. How it is done: Paraffin sections underwent successively dewaxing to water, antigen repair, blocking of endogenous peroxidase, serum blocking, primary antibody incubation, secondary antibody reaction, DAB color development, counterstaining of nuclei, dehydration and sealing, image acquisition and analysis, and microscopic examination.

Data set [6] in a line: Tolerance and organ toxicity in tumor-bearing nude mice (body weight, HE staining). It counts as in vivo. How it is done: (§4) PC-3 cells in logarithmic growth phase were collected and the total number of cells required was calculated. Cells were re-suspended in a suitable volume of PBS and added to matrigel (PBS: matrigel = 1:1(v/v)) at a concentration of 5 × 10^6 cells/mL for subcutaneous inoculation on the right side of Balb/C nude mice. On day 0, 0.1 mL 5 × 10^6 cells/mL cell suspension (PBS: matrigel = 1:1(v/v)) was subcutaneously inoculated on the right neck and back of each nude mouse except the mice of normal group, to establish PC-3 subcutaneously transplanted tumor model. On day 8 after cell inoculation, the tumor grew to an average volume of 140.3 mm^3. The groups were randomly divided into normal group (Normal), control group (Control), methotrexate group (MTX 4.8 mg/kg), low dose group (C 5 mg/kg), medium dose group (C 10 mg/kg) and high dose group (C 20 mg/kg). Except for 3 mice in the normal group, 6 mice in the other groups were administered twice a week via tail vein (BIW). After 2 weeks of dosing, the dose was changed to once a day (QD). After 2 days of QD administration, tail vein injection was changed to intraperitoneal administration, and QD administration was continued for 5 days. Pharmacodynamic activity was evaluated based on tumor inhibition rate (TGITV) and tolerance was evaluated based on animal weight change and death. At the end of the experiment, all the animals were bled under isoflurane anesthesia and the serum was extracted. The heart, liver, spleen, lung and kidney of each nude mouse were collected and fixed in 4% paraformaldehyde or quick-frozen in liquid nitrogen and stored at -80 ℃ for tissue protein extraction.
(§5) Tissue samples were embedded, sectioned, dewaxed, stained, dehydrated and transparent, and sealed with neutral gum. After drying in a ventilated place, observing and recording under a microscope, the sections were stored at room temperature.

The test system of data set [7] is human prostate carcinoma PC-3 cells. The data set can be described thus: CCK-8 cytotoxic activity assay, PC-3. The conditions noted are these: CCK-8, 48 h. The format is cell-based. On the procedure: as §1, §2
In general terms: Tetrazolium assays rely on reduction of a dye to a coloured formazan, in cell work by metabolically active cells.

The test system of data set [8] is PC-3 subcutaneously transplanted tumor. The data set can be described thus: PC-3 subcutaneously transplanted tumor model in nude mice. The format is in vivo, Balb/C nude mice. The conditions noted are these: for tumor weight: last day of administration, control group 2885.5 ± 432.0 mg. On the procedure: as §4, §5
Mouse tumor tissues were fixed with 4% PFA and washed with PBS, and TUNEL staining was performed with TUNEL apoptosis detection kit according to manufacturer’s instructions. Cell nucleus were stained with DAPI, slides were rinsed and imaged with fluorescence microscopy, and finally apoptosis was analyzed with image analyzer.

As a reminder, the Kd is the concentration at which binding is half-saturated. The low end stands for tighter binding, the high end for weaker binding. What is called IC50 is the point on the concentration scale where inhibition reaches its midpoint. Low readings indicate higher potency, high ones lower potency. `C=C1CC[C@H](C(=C)C)[C@H]2C=C(C)C(=O)C3=C(C(=O)[C@](C)(O)C3)[C@H]12` [Curcusone C]: binding at PCBP2 protein was characterised by a dissociation constant (Kd) of 3150 µM. The same compound yielded an IC50 in data set [1] of over 20 µM. Moreover, in data set [2], the “level of Bcl-2 in PC-3 cells” value is on record as “decreased gradually”; the “relative expression levels of Bax, cleaved caspase-3 and cleaved PARP in PC-3 cells” value is listed as “increased gradually”. Besides, the “amount of enzymolysis by pronase of PCBP2” value with PCBP2 [3] is “lower than that of control group”. For the same compound, in the data set on PCBP2 [4], the “relative content of PCBP2 in PC-3 cells” value was “decreased with the increase of drug concentration”. Further, the “changes of TGF-β1, P-Smad2 and P-smad7 proteins in tumor tissues” value in data set [5] (IHC) is “downward trend”. The “content of FHL3 protein in tumor tissues” value in [5] (IHC, 20 mg/kg) is “higher than that in Control group”. The “expression of PCBP2 protein in tumor tissues” value in data set [5] (IHC, 5, 10, 20 mg/kg) is “decreased with the increase of drug concentration”. In data set [6] (20 mg/kg), the “HE staining of lung tissue” value is listed as “no interstitial thickening of lung tissue” and the “body weight of nude mice” value is “weight loss due to intolerance at the initial stage of drug administration”. Further, in data set [6] (after administration of Curcusone C), the “HE staining of renal tissue” value is “no obvious abnormality”. In [6] (compared with the normal group), the “HE staining of heart, liver, spleen, lung and kidney” value was “no significant changes”. Moreover, the IC50 in data set [7] (PC-3, 48 h) is about 3.24 µM. Besides, in [8] (5 mg/kg), the “TUNEL apoptotic signal in tumor tissue” value is listed as “no apoptotic cell signal”, the tumor inhibition rate was determined as 18% and the tumor weight came out at 2356.7 ± 445.7 mg. In data set [8] (10 mg/kg), the “TUNEL apoptotic signal in tumor tissue” value is given as “red marker signal”, the tumor inhibition rate was determined as 33% and the tumor weight was 1925.6 ± 242.1 mg. Also, in data set [8] (20 mg/kg), the “HE staining of tumor tissue” value is “nuclear pyknosis and lysis”; the “TUNEL apoptotic signal in tumor tissue” value is listed as “most obvious apoptotic signal”; the tumor inhibition rate entry is “about 39%”; the tumor weight came out at 1759.6 ± 448.7 mg.
The compound `C=C1CC[C@H](C(=C)C)C2C=C(C)C(=O)C3=C(C(=O)[C@](C)(Cl)C3)C12` (stereo partly shown) [Derivative C-1] came in with an IC50 in [7] (PC-3, 48 h) of 3.74 ± 0.4 µM.
On the same count and under the same terms, then `C=C(C)[C@H]1CCC(O)(CCl)C2C3=C(C[C@@](C)(O)C3=O)C(=O)C(C)=CC21` (stereo partly shown) [Derivative C-2], with 6.4 ± 0.38 µM.
Same read-out and setting: with `C=C(C)[C@H]1CCC(O)(CI)C2C3=C(C[C@@](C)(O)C3=O)C(=O)C(C)=CC21` (stereo partly shown) [Derivative C-3] the figure was 10.3 ± 0.58 µM; with `C=C(C=O)[C@H]1CCC(O)(CCl)C2C3=C(C[C@@](C)(O)C3=O)C(=O)C(C)=CC21` (stereo partly shown) [Derivative C-4], 2.35 ± 0.37 µM; with `C=C(C)C(=O)OCC(=C)[C@H]1CCC(O)(CCl)C2C3=C(C[C@@](C)(O)C3=O)C(=O)C(C)=CC21` (stereo partly shown) [Derivative C-5], 2.05 ± 0.96 µM.
The same measure, in the same setting: then `C=C(COC(=O)/C=C/C=C/C)[C@H]1CCC(O)(CCl)C2C3=C(C[C@@](C)(O)C3=O)C(=O)C(C)=CC21` (stereo partly shown) [Derivative C-6], with 1.81 ± 0.18 µM; and `C=C(CO)[C@H]1CCC(O)(CCl)C2C3=C(C[C@@](C)(O)C3=O)C(=O)C(C)=CC21` (stereo partly shown) [Derivative C-7], with 16.3 ± 3.25 µM.
Turning to `C=C(COC(C)=O)[C@H]1CCC(O)(CCl)C2C3=C(C[C@@](C)(O)C3=O)C(=O)C(C)=CC21` (stereo partly shown) [Derivative C-8], half-maximal inhibition in [7] (PC-3, 48 h) (IC50) was put at 9.49 ± 0.17 µM.
On to `C=C(COC(=O)CC(=O)OC)[C@H]1CCC(O)(CCl)C2C3=C(C[C@@](C)(O)C3=O)C(=O)C(C)=CC21` (stereo partly shown) [Derivative C-9], for which, in data set [7] (PC-3, 48 h), the IC50 stood at 5.97 ± 1.16 µM.
Consider `C=C(C)[C@@H](CCC(=O)COC(C)=O)c1cc2c(c(=O)c(C)c1)C[C@@](C)(O)C2=O` [Derivative C-10], for which the IC50 in data set [7] (PC-3, 48 h) is over 20 µM.
Consider `C=C(C)[C@@H](CCC(=O)CN(CC)CC)c1cc2c(c(=O)c(C)c1)C[C@@](C)(O)C2=O` [Derivative C-11], for which the IC50 in data set [7] (PC-3, 48 h) is over 20 µM.
Compound `C=C(COc1ccc([N+](=O)[O-])cc1)[C@@H](CCC(=O)COc1ccc([N+](=O)[O-])cc1)c1cc2c(c(=O)c(C)c1)C[C@@](C)(O)C2=O` [Derivative C-12] gave an IC50 in [7] of over 20 µM.
`C=C(CCl)[C@H]1CCC(O)(CCl)C2C3=C(C[C@@](C)(O)C3=O)C(=O)C(C)=CC21` (stereo partly shown) [Derivative C-13]: the half-maximal inhibitory concentration (IC50) in data set [7] stood at 2.96 ± 0.37 µM.
In [1], `CN(Cc1cnc2nc(N)nc(N)c2n1)c1ccc(C(=O)N[C@@H](CCC(=O)O)C(=O)O)cc1` [Methotrexate, reference compound] had an IC50 of about 3.21 µM. Further, in [6] (4.8 mg/kg), the “HE staining of kidney (glomerulus in the renal cortex)” value was “severe pyknosis”; the “HE staining of lung tissue” value is “significant pulmonary interstitial thickening and pneumonic pathological manifestations”. For the same compound, the IC50 in [7] (PC-3, 48 h) turned out to be 0.89 ± 0.22 µM. Also, in data set [8] (4.8 mg/kg), the “HE staining of tumor tissue” value was “nuclear pyknosis and lysis”; the “TUNEL apoptotic signal in tumor tissue” value is listed as “most obvious apoptotic signal”; the tumor inhibition rate is recorded as 48%; the tumor weight was found to be 1503.4 ± 243.0 mg.
In the case of `C#CCCCC(=O)O[C@]1(C)CC2=C(C1=O)C1C(=C)CC[C@H](C(=C)C)C1C=C(C)C2=O` (stereo partly shown) [Positive probes], the midpoint of inhibition in data set [7] (PC-3, 48 h), the IC50, lay at 7.34 ± 0.2 µM.
